# Laboratory results as given in patent US6485970B1, “Immunointeractive antibody” (priority 1997, dated 2002).
# Ends that are not written are not given here.
# How the values were obtained:
# sensory nerves [1] = assay: Rat footpad blister model, vascular response to antidromic electrical stimulation of the sciatic nerve; type: in vivo
# Protocol: (§1) A vacuum-induced blister model in the footpad of anaesthetised rats is used to induce an inflammatory response in naive skin by (a) electrical stimulation (ES) of the distal end of the cut sciatic nerve at 20 v, 5 Hz, […] for 1 min or (b) superfusion of the sensory neuropeptide; substance P (SP) over the blister base.
# (§2) Male outbred Sprague-Dawley rats with an average weight of 250-300 gm were used (n=6-8 per group). Anaesthesia was induced with pentobarbitone sodium (Nembutal, 60 mg/kg, i.p.). To ensure that rats remained under a constant stage of surgical anaesthesia additional doses (15 mg/kg) were administered during the experiment. The absence of an eyelash reflex was used as an indication of the level of unconciousness. At the end of the experiment, animals were killed by barbituate overdose (100 mg/kg).
# A blister was induced on the hind footpad on the anaesthetised rat by applying a vacuum pressure of −40 kPa to the glabrous skin for approximately 30 mins, using a metal suction cap heated to 40° C. by an attached heating element.
# When a blister was established, the surface epithelium was removed and a perspex chamber with inlet and outlet ports was fixed over the blister base. Perfusion of the drugs over the blister was maintained at 4 ml/h by a peristaltic pump (Microperpex S, LKB, Sweden). Both perfusion and body temperature were kept at 37° C.
# An initial 15 min equilibration with Ringer's solution (NaCl 9.0 g, KCl 0.42 g, CaCl2 0.48 g, NaHCO3 0.2 g in 1000 ml dH2O) was allowed before each experiment, during which time a stable baseline was established.
# The right sciatic nerve in the mid-thigh region of the anaesthetised rat was dissected free and cut as proximally as possible. The distal portion of the cut nerve was placed over bipolar platinum electrodes and immersed in liquid paraffin warmed to 37° C. and contained in a bath that was formed by raising the skin flaps of the wound. The distal end of the sciatic nerve was stimulated with a Grass S48 stimulator at 20 V, 5 Hz, 0.5 ms square waves for 1 min. These parameters were previously shown to stimulate sensory nerves with subsequent release of sensory peptides.
# (§3) For measurement of local blood flow, a probe attached to a laser Doppler flowmeter (Periflux, PF2B, Perimed, Sweden) was inserted vertically through a third port in the perspex chamber above the blister base. Relative blood flow was recorded over time on a chart recorder and measured as the surface area under the response curve in cm^2 using a digital planimeter.
# (§4) Vasodilator responses were measured as the area under the response curve (cm^2) using a digital planimeter (Tamaya, Japan). For vascular responses to ES the area was measured for 20 min following stimulation. […] Results are expressed as mean±SEM. […]
# [2] = human, in vivo
# sensory nerves [3] = assay: Rat footpad blister model, vascular response to substance P perfusion; type: in vivo; conditions: SP 1 μM alone
# Protocol: as §1
# as §2, with “At the end of the experiment, animals were killed by barbituate overdose (100 mg/kg).” left out
# as §3, §4
# BA-TABM = assay: Competitive inhibition ELISA, BA-TABM against plate bound BA-HSA; type: binding, human; conditions: competitor pre-incubated with BA-TABM
# Protocol: FIG. 13 is a graphical representation of competitive inhibition ELISA between BA-TABM and various haptens. Purified BA-TABM was diluted and pre-mixed with various haptens. […] The amount of TABM binding as determined using the mouse monoclonal anti-human TABM antibody (MG3C9-1A12). [drawing 12]
# FIG. 14 is a graphical representation showing inhibition ELISA between BA-TABM and various chemicals. Purified BA-TABM was diluted and pre-mixed with various chemicals. […] The amount of TABM binding was determined using the mouse monoclonal anti-human TABM antibody (MG3C9-1A12). [drawing 13]
# The competing antigens or haptens were serially diluted (½) in the diluted serum to give a range equivalent to 5000-312.5 ng per well. […] The plate was then incubated for 60 minutes at 37° C. After washing, mouse anti-human TABM was diluted ( 1/2000), added to the plate and incubated for 90 minutes at 37° C., followed by sheep anti-mouse immunoglobulins ( 1/1000). The assay was then completed as previously described. The same ELISA conditions were used with non-bound organic molecules, except that pre-incubation of competing molecules with BA-TABM and serum was for 60 minutes.
compound,measurement,setting,value
"COc1cc(CNC(=O)CCCC/C=C/C(C)C)ccc1O [capsaicin, reference compound]",area of the vascular response to ES,"sensory nerves [1]; capsaicin-pretreated rats (50 mg/kg s.c., neonatal), no TGF-β",11.7±1.1 cm^2
Cc1ccccc1 [toluene],"Digit Symbol, Post Challenge Mean",[2],40.00 No. of correct items
same,"Focal Length, Post Challenge Mean",[2],29.53 cms
same,Letter Cancellation,[2],63% correct
same,"Letter Cancellation Time, Post Challenge Mean",[2],4.79 min
same,Letter Cancellation time,[2],(5′40″)
same,"Letter Cancellation, Post Challenge Mean",[2],77.56 % Correct
same,"Prose Memory (delayed), Post Challenge Mean",[2],8.77 No. Items recalled
same,"Prose Memory (immediate), Post Challenge Mean",[2],7.36 No. Items recalled
same,Prose: Delayed Recall,[2],6.5 items
same,Prose: Immediate Recall,[2],6 items
same,"STROOP (colour), Post Challenge Mean",[2],74.43 No. seconds/100 words
same,"STROOP (colour-word), Post Challenge Mean",[2],119.73 No. seconds/100 words
same,"STROOP (word), Post Challenge Mean",[2],58.93 No. seconds/100 words
same,Stroop: Colour word,[2],161 s
same,Stroop: Colours,[2],90 s
same,Stroop: Words,[2],75 s
same,Symbol Digit,[2],32 items
"Substance P (RPKPQQFFGLM; ends and bridges not checked; UniProt P20366 58-68, looked up) [SP, sensory neuropeptide]","vasodilatation response to SP, area under curve 30 min",sensory nerves [3],44.1±3.9 cm^2
TGF-β,area of the vascular response to ES in presence of TGF-β,"sensory nerves [1]; capsaicin-pretreated rats, TGF-β 10 pg/ml",12.1±1.0 cm^2
same,effect on baseline blood flow,"sensory nerves [1]; control rats, TGF-β 10 pg/ml",did not alter the baseline
same,"area under the vascular response curve to ES, 20 min","sensory nerves [1]; control rats, TGF-β 10 pg/ml perfused 10 min prior to ES and post stimulation",31.44±3.2 cm^2
TMA-BSA: trimellitic acid (TMA) protein conjugate,inhibition of BA-TABM binding to plate bound BA-HSA,BA-TABM,Weaker inhibition
